# Results taken from patent publication US12338283B2, “Methods for targeting the immune checkpoint PD1 pathway for treating pulmonary fibrosis” (CEDARS-SINAI MEDICAL CENTER, priority 2017, dated 2025).
# B1: Interferon gamma-1b: interferon-gamma replenishment tested in IPF trials (protein, UniProt P01579 24-161, looked up)
# Interferon gamma: QDPYVKEAENLKKYFNAGHSDVADNGTLFLGILKNWKEESDRKIMQSQIVSFYFKLFKNFKDDQSIQKSVETIKEDMNVKFFNSNKKKRDDFEKLTNYSVTDLNVQRKAIHELIQVMAELSPAAKTGKRKRSQMLFRG
# Assays:
# patients with IPF = details: cited from earlier work
# CD274+ IPF fibroblasts = test: Matrigel invasion assay of flow-sorted IPF lung fibroblasts; assay type: cell-based, human
# Procedure: (§1) CD274+ and CD274-fibroblast were flow sorted from fibroblasts of healthy and IPF lungs. The cells were plated onto transwells for migration assay, with and without anti-CD274 antibody (α-CD274) and control IgG. Migratory fibroblasts were fixed, stained, and photographed. […] CD274+ and CD274− fibroblast were flow sorted from fibroblasts of healthy and IPF lungs. The cells were plated onto matrigel chamber for invasion assay, with and without anti-CD274 antibody (α-CD274) and control IgG. Invasive fibroblasts were fixed, stained, and photographed.
# FIG. 10A is a schematic representation of an in vitro invasion assay: Lung fibroblasts were seeded in the upper part of transwells. Cells attached to the bottom of Matrigel-coated membrane after 24 h were considered invasive fibroblasts. Cells that remained on top of Matrigel-coated membrane were considered non-invasive fibroblasts. […]
# FIG. 19A-J show CD274 and FAK signaling are required for lung fibroblast invasion. […] FIG. 19B and FIG. 19C are graphs that show cell migration index or invasion index, which was calculated as the number of cells attached to the bottom of control or Matrigel-coated membrane after 24 h, normalized to respective CD274^low lung fibroblasts. […]
# (§2) CD274+ and CD274− fibroblasts from IPF and healthy lungs were flow sorted and analyzed with an invasion assay.
# CD274+ fibroblasts = test: Transwell migration assay of flow-sorted IPF lung fibroblasts; assay type: cell-based, human; details: CD274^low and CD274^high IPF fibroblasts, 24 h, vs vehicle DMSO (FIG. 19A-C)
# Procedure: as §1
# FIG. 19A-J show CD274 and FAK signaling are required for lung fibroblast invasion. In the experimental results shown in FIG. 19A-FIG. 19C, equal number of cells were seeded in the upper part of transwells and cell migration and invasion assays were performed (n=3 per group). […] Scale bar: 1 mm. FIG. 19B and FIG. 19C are graphs that show cell migration index or invasion index, which was calculated as the number of cells attached to the bottom of control or Matrigel-coated membrane after 24 h, normalized to respective CD274^low lung fibroblasts. […] GAPDH served as equal loading control. FIG. 19E, FIG. 19G, and FIG. 19I show hydroxyproline contents in lung tissues. […]
# as §2
# [1] = test system: NSG mice injected with CD274^high IPF fibroblasts; test: Humanized SCID IPF model: lung fibrosis (hydroxyproline, Masson trichrome) in NSG mice injected with IPF fibroblasts; assay type: in vivo, mouse; details: mice receiving CD274^high lung fibroblasts, compared with vehicle (CMC-Na) treated mice (FIG. 19E, 19F)
# Procedure: FIG. 19A-J show CD274 and FAK signaling are required for lung fibroblast invasion. In the experimental results shown in FIG. 19A-FIG. 19C, equal number of cells were seeded in the upper part of transwells and cell migration and invasion assays were performed (n=3 per group). […] Scale bar: 1 mm. FIG. 19B and FIG. 19C are graphs that show cell migration index or invasion index, which was calculated as the number of cells attached to the bottom of control or Matrigel-coated membrane after 24 h, normalized to respective CD274^low lung fibroblasts. […] GAPDH served as equal loading control. FIG. 19E, FIG. 19G, and FIG. 19I show hydroxyproline contents in lung tissues. FIG. 19F, FIG. 19H and FIG. 19J show Masson trichrome staining of collagen on lung sections from NSG mice injected with CD274^low and CD274^high IPF fibroblasts treated with VS4718, vehicle control CMC-Na, or from NSG mice receiving gRNA-CTL or CD274 KO lung fibroblasts (n=6 per group), or from NSG mice injected with CD274^high IPF fibroblasts treated with Q-CD274 (n=12 per group) or isotype control IgG (n=12 for D0-35 IgG, n=11 for D35-63 IgG). Scale bars (FIG. 19F, FIG. 19H): 1 mm (top panel), 100 μm (middle and lower panels). Throughout, data are mean±sem. *P<0.05; **P<0.01 by student's t test (FIG. 19B, FIG. 19C, FIG. 19E, FIG. 19G).
# The effect of the inhibition is assessed with hyroxyproline assay. […]
molecule,measurement,setting,value
COC(=O)c1ccc2c(c1)NC(=O)/C2=C(\Nc1ccc(N(C)C(=O)CN2CCN(C)CC2)cc1)c1ccccc1 [nintedanib],improve lung function or reduce fibrosis,patients with IPF,neither
Cc1ccc(=O)n(-c2ccccc2)c1 [Pirfenidone],disease progression,patients with IPF,reduces disease progression
same,improve lung function or reduce fibrosis,patients with IPF,neither
CC(=O)N[C@@H](CS)C(=O)O [acetylcysteine],clinical benefit in patients with IPF,patients with IPF,some benefits
COc1ccccc1Oc1c(NS(=O)(=O)c2ccc(C(C)(C)C)cc2)nc(-c2ncccn2)nc1OCCO [Bosentan],clinical benefit in patients with IPF,patients with IPF,not better than placebo
CNC(=O)c1ccccc1Nc1cc(Nc2ccc(N3CCOCC3)cc2OC)ncc1C(F)(F)F [VS4718],cell invasion of lung fibroblasts,"CD274+ IPF fibroblasts; CD274^low and CD274^high IPF fibroblasts, Matrigel-coated membrane, 24 h, vs vehicle DMSO (FIG. 19A-C)",significantly blocked
same,invasiveness / invasive phenotype of CD274+ fibroblasts,"CD274+ IPF fibroblasts; flow-sorted CD274+ IPF fibroblasts, matrigel chamber",reduced invasiveness
same,cell migration of lung fibroblasts,CD274+ fibroblasts,significantly blocked
same,development of fibrosis,[1],prevented the development of fibrosis
B1,survival for patients with IPF,patients with IPF,did not improve survival
